Laboratory results: patent US20170360779A1, “PHARMACEUTICAL COMPOSITION COMPRISING BICYCLIC NITROGEN-CONTAINING AROMATIC HETEROCYCLIC AMIDE COMPOUND AS ACTIVE INGREDIENT” (Astellas Pharma Inc., priority 2014, published 2017)

Columns and labels:
HARA cells [1] = test: Anti-tumor test (2) on mice bearing HARA tumors; type: in vivo, BALB/c nude mice; settings: Test Example 4, HARA, final measuring day
Protocol: (§1) A427 cells and NCI-H1395 cells which are LKB1 mutation-positive non-small cell lung cancer cell lines, and HARA cells and NCI-H1993 cells which are LKB1 wild-type non-small cell lung cancer cell lines, suspended in a mixed solution of PBS and Matrigel (registered trademark) in 1:1, were injected and implanted, 3×10^6 cells each (for A427 cells, 5×10^6), to 4- to 5-week-old male BALB/c nude mice (Charles River Laboratories Japan, Inc.) under the skin on the back. Dividing into groups was performed when the tumor volume reached 100 to 300 mm^3, and administering of the test compounds was started. The test was performed on each of the 5 mice in the solvent group and the compound administered group. By oral administration, 6% cyclodextrin aqueous solution for the solvent group, and 6% cyclodextrin aqueous solution in which the test compound was mixed by the dosage shown in Table 4 for the compound administered group were administered. The administration was performed once a day for 14 days (HARA), 21 days (A427, NCI-H1993), or 35 days (NCI-H1395), and the body weight and the tumor diameter were measured twice a week. For calculation of the tumor volume, the formula below was used.
(§2) [Tumor volume (mm^3)]−[major axis of tumor (mm)]×[minor axis of tumor (mm)]^2×0.5
(§3) The inhibition rate of tumor growth and the rate of tumor regression were calculated from the average value of the tumor volume according to the formula below.
(§4) Inhibition rate of tumor growth (%)=(1−average of tumor volume growth in each group/average of tumor volume growth in control group)×100
(§5) Rate of tumor regression (%)=(1−average tumor volume in each group on measuring day/average tumor volume in each group when dividing groups)×100

NCI-H1993 cells [2] = test: Anti-tumor test (2) on mice bearing NCI-H1993 tumors; type: in vivo, BALB/c nude mice; settings: final measuring day
Protocol: as §1, §2, §3, §4, §5

NCI-H1395 cells [3] = test: Anti-tumor test (2) on mice bearing NCI-H1395 tumors; type: in vivo, BALB/c nude mice; settings: final measuring day
Protocol: as §1, §2, §3, §4, §5

A427 cells [4] = test: Anti-tumor test (2) on mice bearing A427 tumors; type: in vivo, BALB/c nude mice; settings: final measuring day
Protocol: as §1, §2, §3, §4, §5

AMPK = test: Evaluation on effect of activating AMPK (phosphorylation of ACC Ser79, Cell ELISA in MDA-MB-453 cells); type: cell-based; settings: Homo sapiens, 2 hours, concentration as freebase
Protocol: 36 μl each of MDA-MB-453 cells was seeded in Leibovitz's L-15 medium including 10% fetal bovine serum (Life Technologies Corporation) in a 384 well plate so that the cells became 15,000 cells per well, and the cells were cultured overnight at 37° C. in the absence of CO2. […] After that, the cells were cultured at 37° C. for 2 hours in the absence of CO2. 20 μl of a 40% glyoxal solution (Nacalai Tesque, INC.) was added to each well, and then the cells were left to stand at room temperature for 30 minutes to be fixed. Thereafter, the supernatant was removed by centrifuging the plate (at 800 rpm for 8 seconds by using the Ecospin of C.A.N. Hereinafter the centrifugation was performed under the same conditions unless otherwise specified), and 20 μl of 0.1% Triton X-100-containing Phosphate-Buffered Saline (PBS) was added to each well, and then left to stand at room temperature for 10 minutes. The 0.1% Triton X-100-containing PBS was removed by centrifugation, and 20 μl of a blocking solution (Odyssey Blocking Buffer manufactured by LI-COR Biosciences, Inc.) was added to each well, and then left to stand at room temperature for 1 hour. […] On the following day, the reaction solution was removed by centrifuging the plate, and 25 μl of 0.05% Tween-20-containing Tris-Buffered Saline (TBS) (manufactured by Thermo Scientific; used in 1× by diluting 20×TBS Tween-20 with ion-exchange water) was added to each well, and then each well was washed by centrifugal removal. The washing was performed for a total of 3 times. […] The reaction solution was removed by centrifuging the plate, and then each well was washed for 3 times with 0.05% Tween-20-containing TBS in the same manner as after the primary antibody reaction. After the washing solution was removed, the plate was air-dried at room temperature for 3 hours or longer and signals were measured by Aerius (manufactured by LI-COR Biosciences, Inc.).

A427 cells [5] = test: Anti-tumor test (1) on mice bearing A427 tumors; type: in vivo, BALB/c nude mice; settings: Test Example 3, A427 (LKB1 mutation-positive), 8 mg/kg oral once a day for 21 days, final measuring day
Protocol: (§6) A427 cells and NCI-H1395 cells which are LKB1 mutation-positive non-small cell lung cancer cell lines, and HARA cells and NCI-H1993 cells which are LKB1 wild-type non-small cell lung cancer cell lines, suspended in a mixed solution of PBS and Matrigel (registered trademark) in 1:1, were injected and implanted, 3×10^6 cells each, to 4- to 5-week-old male BALB/c nude mice (Charles River Laboratories Japan, Inc.) under the skin on the back. After that, administering of the test compounds was started after confirming that the average tumor volume exceeded 100 mm^3. The test was performed on each of the 4 to 5 mice in a solvent group and a compound administered group. By oral administration, 6% cyclodextrin aqueous solution for the solvent group, and 6% cyclodextrin aqueous solution in which the test compound was mixed by 8 mg/kg for the compound administered group were administered. The administration was performed once a day for 14 days (NCI-H1993, HARA), 21 days (A427), or 35 days (NCI-H1395), and the body weight and the tumor diameter were measured twice a week. For calculation of the tumor volume, the formula below was used.
(§7) [Tumor volume (mm^3)]=[major axis of tumor (mm)]×[minor axis of tumor (mm)]^2×0.5
(§8) The inhibition rate of tumor growth and the rate of tumor regression were calculated from the average value of the tumor volume according to the formula below. […]

NCI-H1395 cells [6] = test: Anti-tumor test (1) on mice bearing NCI-H1395 tumors; type: in vivo, BALB/c nude mice; settings: Test Example 3, NCI-H1395 (LKB1 mutation-positive), 8 mg/kg oral once a day for 35 days, final measuring day
Protocol: as §6, §7, §8

NCI-H1993 cells [7] = test: Anti-tumor test (1) on mice bearing NCI-H1993 tumors; type: in vivo, BALB/c nude mice; settings: Test Example 3, NCI-H1993 (LKB1 wild-type), 8 mg/kg oral once a day for 14 days, final measuring day
Protocol: as §6, §7, §8

HARA cells [8] = test: Anti-tumor test (1) on mice bearing HARA tumors; type: in vivo, BALB/c nude mice; settings: Test Example 3, HARA (LKB1 wild-type), 8 mg/kg oral once a day for 14 days, final measuring day
Protocol: as §6, §7, §8

[9] = 8 mg/kg oral once a day for 14 days
[10] = Test Example 4, NCI-H1993, 8 mg/kg oral once a day for 21 days
[11] = Test Example 4, NCI-H1395, 8 mg/kg oral once a day for 35 days
[12] = Test Example 4, A427, 8 mg/kg oral once a day for 21 days
[13] = 1 mg/kg oral once a day for 14 days
[14] = Test Example 4, NCI-H1993, 1 mg/kg oral once a day for 21 days
[15] = Test Example 4, NCI-H1395, 1 mg/kg oral once a day for 35 days
[16] = Test Example 4, A427, 1 mg/kg oral once a day for 21 days

Row | Structure (SMILES) | Inhibition rate HARA (HARA cells [1]; [9]) [%] | Inhibition rate NCI-H1993 (NCI-H1993 cells [2]; [10]) [%] | Inhibition rate NCI-H1395 (NCI-H1395 cells [3]; [11]) [%] | Inhibition rate A427 (A427 cells [4]; [12]) [% inhibition] | EC50 (AMPK) [nM] | Inhibition rate HARA (HARA cells [1]; [13]) [%] | Inhibition rate NCI-H1993 (NCI-H1993 cells [2]; [14]) [%] | Inhibition rate NCI-H1395 (NCI-H1395 cells [3]; [15]) [%] | Inhibition rate A427 (A427 cells [4]; [16]) [% inhibition] | Rate of tumor regression (A427 cells [5]) [% regression] | Rate of tumor regression (NCI-H1395 cells [6]) [% regression] | Inhibition rate of tumor growth (NCI-H1993 cells [7]) [% inhibition] | Inhibition rate of tumor growth (HARA cells [8]) [% inhibition] | Regression rate A427 (A427 cells [4]; [16]) [% regression]
1 | COc1cnc(CN2CCC(c3ccc4[nH]c(C(=O)N5CCN(Cc6ccc(C(F)(F)F)cc6)CC5)nc4c3)CC2)cn1 [Compound B1, (5-{1-[(5-methoxypyrazin-2-yl)methyl]piperidin-4-yl}-1H-benzimidazol-2-yl) {4-[4-(trifluoromethyl)benzyl]piperazin-1-yl}methanone] | 14 | 62 | 74 | 99 | 8.3 | – | – | – | – | – | – | – | – | –
2 | COc1cnc(CN2CCC(c3ccc4c(c3)cc(C(=O)N3CCN(Cc5ccc(C#N)cc5)CC3)n4C)CC2)cn1 [Compound D1, 4-({4-[(5-{1-[(5-methoxypyrazin-2-yl)methyl]piperidin-4-yl}-1-methyl-1H-indol-2-yl)carbonyl]piperazin-1-yl}methyl)benzonitrile] | – | – | – | – | 3.3 | 31 | 42 | 70 | 96 | – | – | – | – | –
3 | COc1ccc(CN2CCC(c3ccc4[nH]c(C(=O)N5CCN(Cc6ccc(C(F)(F)F)cc6)CC5)nc4c3)CC2)cn1 [Compound A1, (5-{1-[(6-methoxypyridin-3-yl)methyl]piperidin-4-yl}-1H-benzimidazol-2-yl){4-[4-(trifluoromethyl)benzyl]piperazin-1-yl}methanone] | 1.2 | 47 | 61 | 84 | – | – | – | – | – | 41 | 16 | 62 | 32 | –
4 | CCOc1cnc(CN2CCC(c3ccc4cc(C(=O)N5CCN(Cc6ccc(C#N)cc6)CC5)n(C)c4c3)CC2)cn1 [Compound C1, 4-({4-[(6-{1-[(5-ethoxypyrazin-2-yl)methyl]piperidin-4-yl}-1-methyl-1H-indol-2-yl)carbonyl]piperazin-1-yl}methyl)benzonitrile] | – | – | – | – | 1.8 | 29 | 50 | 75 | – | – | – | – | – | 69
